# Experimental data reported in ChEMBL document CHEMBL3045296, “Synthesis of aryloxyalkylamines as h5-HT1B agonists with potential analgesic activity” (Med Chem Res, 2009).
# pKi: −log10 of the molar value.
# Tests used:
# Mus musculus [1] = assay: Analgesic activity in Mus musculus (mouse) assessed as writhing response at 50 mg/kg, ip relative to control; assay type: functional; conditions: route intraperitoneal
# Mus musculus [2] = assay: Analgesic activity in Mus musculus (mouse) assessed as writhing response at 25 mg/kg, ip relative to control; assay type: functional; conditions: route intraperitoneal
# Mus musculus [3] = assay: Toxicity in Mus musculus (mouse) assessed as irritability at 50 mg/kg, ip; assay type: organism-based; parameters: dose 50 mg/kg, route intraperitoneal; conditions: in vivo
# Mus musculus [4] = assay: Toxicity in Mus musculus (mouse) assessed as tremors at 50 mg/kg, ip; assay type: organism-based; parameters: dose 50 mg/kg, route intraperitoneal; conditions: in vivo
# Mus musculus [5] = assay: Toxicity in Mus musculus (mouse) assessed as skeletal muscle incoordination at 50 mg/kg, ip; assay type: organism-based, Muscle tissue; parameters: dose 50 mg/kg, route intraperitoneal; conditions: in vivo
# Mus musculus [6] = assay: Analgesic activity in Mus musculus (mouse) assessed as writhing response at 75 mg/kg, ip relative to control; assay type: functional; conditions: route intraperitoneal
# Mus musculus [7] = assay: Toxicity in Mus musculus (mouse) assessed as epilepsy at 50 mg/kg, ip; assay type: organism-based; parameters: dose 50 mg/kg, route intraperitoneal; conditions: in vivo
# Mus musculus [8] = assay: Toxicity in Mus musculus (mouse) assessed as muscle twitching at 50 mg/kg, ip; assay type: organism-based, Muscle tissue; parameters: dose 50 mg/kg, route intraperitoneal; conditions: in vivo
# Mus musculus [9] = assay: Toxicity in Mus musculus (mouse) assessed as excitation at 50 mg/kg, ip; assay type: organism-based; parameters: dose 50 mg/kg, route intraperitoneal; conditions: in vivo
# Mus musculus [10] = assay: Toxicity in Mus musculus (mouse) assessed as tail and hair erection at 50 mg/kg, ip; assay type: organism-based; parameters: dose 50 mg/kg, route intraperitoneal; conditions: in vivo
# Mus musculus [11] = assay: Toxicity in Mus musculus (mouse) assessed as protrusion of eyes at 50 mg/kg, ip; assay type: organism-based; parameters: dose 50 mg/kg, route intraperitoneal; conditions: in vivo
# Mus musculus [12] = assay: Toxicity in Mus musculus (mouse) assessed as difficulties in respiration at 50 mg/kg, ip; assay type: organism-based; parameters: dose 50 mg/kg, route intraperitoneal; conditions: in vivo
# [13] = target: 5-hydroxytryptamine receptor 1D (Homo sapiens, UniProt P28221); assay: Binding affinity to Homo sapiens (human) 5HT1D receptor by radioligand binding assay
# [14] = target: 5-hydroxytryptamine receptor 1B (Homo sapiens, UniProt P28222); assay: Binding affinity to Homo sapiens (human) 5HT1B receptor by radioligand binding assay
# Mus musculus [15] = assay: Toxicity in Mus musculus (mouse) assessed as muscle twitching at 20 mg/kg, ip; assay type: organism-based, Muscle tissue; parameters: dose 20 mg/kg, route intraperitoneal; conditions: in vivo
# Mus musculus [16] = assay: Toxicity in Mus musculus (mouse) assessed as protrusion of eyes at 20 mg/kg, ip; assay type: organism-based; parameters: dose 20 mg/kg, route intraperitoneal; conditions: in vivo
# Mus musculus [17] = assay: Toxicity in Mus musculus (mouse) assessed as difficulties in respiration at 20 mg/kg, ip; assay type: organism-based; parameters: dose 20 mg/kg, route intraperitoneal; conditions: in vivo
# Mus musculus [18] = assay: Toxicity in Mus musculus (mouse) assessed as skeletal muscle incoordination at 20 mg/kg, ip; assay type: organism-based, Muscle tissue; parameters: dose 20 mg/kg, route intraperitoneal; conditions: in vivo
# Mus musculus [19] = assay: Analgesic activity in Mus musculus (mouse) assessed as writhing response at 20 mg/kg, ip relative to control; assay type: functional; conditions: route intraperitoneal
# Mus musculus [20] = assay: Toxicity in Mus musculus (mouse) assessed as excitation at 20 mg/kg, ip; assay type: organism-based; parameters: dose 20 mg/kg, route intraperitoneal; conditions: in vivo
# Mus musculus [21] = assay: Toxicity in Mus musculus (mouse) assessed as tremors at 20 mg/kg, ip; assay type: organism-based; parameters: dose 20 mg/kg, route intraperitoneal; conditions: in vivo
# Mus musculus [22] = assay: Toxicity in Mus musculus (mouse) assessed as epilepsy at 20 mg/kg, ip; assay type: organism-based; parameters: dose 20 mg/kg, route intraperitoneal; conditions: in vivo
# Mus musculus [23] = assay: Toxicity in Mus musculus (mouse) assessed as tail and hair erection at 20 mg/kg, ip; assay type: organism-based; parameters: dose 20 mg/kg, route intraperitoneal; conditions: in vivo
# Mus musculus [24] = assay: Toxicity in Mus musculus (mouse) assessed as irritability at 20 mg/kg, ip; assay type: organism-based; parameters: dose 20 mg/kg, route intraperitoneal; conditions: in vivo
# Mus musculus [25] = assay: Analgesic activity in Mus musculus (mouse) assessed as writhing response at 100 mg/kg, ip relative to control; assay type: functional; conditions: route intraperitoneal
# 5-hydroxytryptamine receptor 1B, sequence (P28222 whole entry): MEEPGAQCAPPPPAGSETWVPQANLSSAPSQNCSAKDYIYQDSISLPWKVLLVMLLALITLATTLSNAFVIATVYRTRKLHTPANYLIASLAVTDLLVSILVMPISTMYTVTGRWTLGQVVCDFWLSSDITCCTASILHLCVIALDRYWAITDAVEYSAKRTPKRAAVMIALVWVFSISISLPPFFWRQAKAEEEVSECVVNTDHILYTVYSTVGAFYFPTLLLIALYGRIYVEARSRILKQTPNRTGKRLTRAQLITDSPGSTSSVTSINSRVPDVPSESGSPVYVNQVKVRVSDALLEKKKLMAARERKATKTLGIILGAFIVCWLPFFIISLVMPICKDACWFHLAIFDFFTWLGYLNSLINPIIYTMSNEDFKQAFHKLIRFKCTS
# 5-hydroxytryptamine receptor 1D, sequence (P28221 whole entry): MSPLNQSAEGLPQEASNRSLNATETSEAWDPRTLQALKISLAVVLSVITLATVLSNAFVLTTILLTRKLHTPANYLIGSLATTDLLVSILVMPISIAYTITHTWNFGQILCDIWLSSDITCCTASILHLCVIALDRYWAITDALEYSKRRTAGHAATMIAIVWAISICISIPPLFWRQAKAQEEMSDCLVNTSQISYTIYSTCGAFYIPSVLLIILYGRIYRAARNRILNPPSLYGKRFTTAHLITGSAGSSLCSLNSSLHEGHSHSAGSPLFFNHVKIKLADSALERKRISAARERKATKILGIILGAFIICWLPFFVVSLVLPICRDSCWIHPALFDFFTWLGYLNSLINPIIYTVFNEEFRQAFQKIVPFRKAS
structure (smiles),measurement,setting,value
CNCCOc1c(Br)cccc1Br.O=C(O)C(=O)O,Activity,Mus musculus [1],62.5%
same,Activity,Mus musculus [2],25%
same,Activity,Mus musculus [3],Toxic
same,Activity,Mus musculus [4],Toxic
same,Activity,Mus musculus [5],Toxic
same,Activity,Mus musculus [6],100%
same,Activity,Mus musculus [7],Toxic
same,Activity,Mus musculus [8],Toxic
same,Activity,Mus musculus [9],Toxic
same,Activity,Mus musculus [10],Toxic
same,Activity,Mus musculus [11],Toxic
same,Activity,Mus musculus [12],Toxic
CNCCOc1cccc(Cl)c1Cl,pKi,[13],5.69
same,pKi,[14],7.44
CNCCOc1ccc(Cl)cc1Cl,pKi,[13],6.01
same,pKi,[14],5.56
CNCCOc1cc(Cl)ccc1Cl,pKi,[13],5.42
same,pKi,[14],5.44
CNCCOc1ccc(Br)cc1Br,pKi,[13],5.91
same,pKi,[14],5.90
CN1CCN(CCOc2ccc(Br)cc2Br)CC1,pKi,[13],< 5.00
same,pKi,[14],5.84
CN[C@@H](COc1cccc(Cl)c1Cl)c1ccccc1,pKi,[13],5.20
same,pKi,[14],< 5.00
CN[C@H](COc1cccc(Cl)c1Cl)c1ccccc1,pKi,[13],5.11
CN1CCN([C@@H](COc2cccc(Cl)c2Cl)c2ccccc2)CC1,pKi,[13],5.83
same,pKi,[14],6.08
CN1CCN([C@H](COc2cccc(Cl)c2Cl)c2ccccc2)CC1,pKi,[13],5.26
same,pKi,[14],6.04
CNC(C)COc1cccc(Cl)c1Cl (racemic),pKi,[13],6.22
same,pKi,[14],5.61
CNC(C)COc1ccc(Cl)cc1Cl (racemic),pKi,[13],5.54
same,pKi,[14],5.38
CNC(C)COc1cc(Cl)ccc1Cl.O=C(O)C(=O)O (racemic),pKi,[13],5.27
same,Activity,Mus musculus [15],Toxic
same,Activity,Mus musculus [16],Toxic
same,Activity,Mus musculus [17],Toxic
same,Activity,Mus musculus [18],Toxic
same,Activity,Mus musculus [19],66%
same,Activity,Mus musculus [20],Toxic
same,Activity,Mus musculus [21],Toxic
same,pKi,[14],5.17
same,Activity,Mus musculus [22],Toxic
same,Activity,Mus musculus [23],Toxic
same,Activity,Mus musculus [24],Toxic
CNC(C)COc1ccc(Br)cc1Br (racemic),pKi,[13],5.95
same,pKi,[14],5.64
CNC(C)COc1c(Br)cccc1Br.O=C(O)C(=O)O (racemic),Activity,Mus musculus [1],75%
same,pKi,[13],6.65
same,Activity,Mus musculus [2],0%
same,Activity,Mus musculus [3],Toxic
same,Activity,Mus musculus [4],Toxic
same,Activity,Mus musculus [5],Toxic
same,Activity,Mus musculus [6],100%
same,Activity,Mus musculus [7],Toxic
same,Activity,Mus musculus [8],Toxic
same,Activity,Mus musculus [9],Toxic
same,pKi,[14],7.15
same,Activity,Mus musculus [10],Toxic
same,Activity,Mus musculus [11],Toxic
same,Activity,Mus musculus [12],Toxic
CNC(C)COc1cccc(Oc2ccccc2)c1 (racemic),pKi,[13],6.41
same,pKi,[14],6.12
CC(=O)Oc1ccccc1C(=O)O [ASPIRIN],Activity,Mus musculus [25],100%
